Laboratory results taken from US4036961A (priority 1972, dated 1977).
Structures can show the parent of a compound that is named as a salt.

Assays:
[1] = target: hydroxymethyldihydropteridine pyrophosphokinase (HMPPS) (Escherichia coli, UniProt P26281); assay: Inhibition of the enzymes of dihydropteroate biosynthesis (ATP-γ-P32 transfer assay for HMPPS; dihydropteroate-C14 formation for synthetase); type: biochemical; conditions: enzymes from E. coli extract; tests (a) HMPPS and (b) synthetase of Example 5; read-out: concentration giving 50% inhibition
Chain of hydroxymethyldihydropteridine pyrophosphokinase (HMPPS) (P26281 whole entry): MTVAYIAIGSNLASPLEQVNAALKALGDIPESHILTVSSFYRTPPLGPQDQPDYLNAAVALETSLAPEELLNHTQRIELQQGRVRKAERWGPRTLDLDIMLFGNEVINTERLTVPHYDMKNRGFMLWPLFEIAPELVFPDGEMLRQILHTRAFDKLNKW
Experimental: The inhibiting activity against HMPPS of a selected compound of formula (I) can, for instance, be tested by monitoring the transfer of the terminal phosphate of adenosine triphosphate ATP-γ-P^32 to `dihydropteridine`. […] Such inhibition may, for instance, be easily and simply carried out by incubating an extract of E. coli with pAB-7-C^14, ATP, Mg and `dihydropteridine`. The formation of the dihydropteroate-C^14 can be quantitatively assayed after separating the unreated pAB substrate, for instance by chromatography. […] Preferably the value is 25 μM or less, such as in the range between […]. Generally a value below 7μM is desirable. […]
phosphate of ATP-γ-P^32 to Pt could be monitored and correlated […]
Tubes 1 to 9 containing the amounts of components shown in the Table, were filled up to 200μl with distilled water, incubated for 60 minutes at 37° C and then chilled on ice. […] The charcoal and the filter were then radioactively counted.
The radioactive count from the contents of tubes 2 and 3 was taken as the maximum count, since these tubes contained no test compound and thus gave 0% enzyme inhibition. The percentage inhibition produced by the contents of the remaining tubes could then be calculated by relating their radioactive count to the maximum, as determined above. […]

Cl. perfringens = conditions: disclosed in British Pat. No. 1303171 and Application No. 36289/70; cited from earlier work
Derm. dermatonomous = conditions: disclosed in British Pat. No. 1303171 and Application No. 36289/70; cited from earlier work

CC1(C)Nc2nc(N)nc(O)c2N=C1CBr [2-Amino-4-hydroxy-6-bromomethyl-7,7-dimethyl-7,8-dihydropteridine hydrobromide]
IC50 [1]: 5 µM

CC1(C)Nc2nc(N)nc(O)c2N=C1CO [2-amino-4-hydroxy-6-hydroxymethyl-7,7-dimethyl-7,8-dihydropteridine]
bacteriostatic activity (Cl. perfringens): particularly effective
bacteriostatic activity (Derm. dermatonomous): particularly effective

CC1=Nc2c(O)nc(N)nc2NC1(C)C [2-amino-4-hydroxy-6-methyl-7,7-dimethyl-7,8-dihydropteridine]
bacteriostatic activity (Cl. perfringens): particularly effective
bacteriostatic activity (Derm. dermatonomous): particularly effective

CC1(C)Nc2nc(N)nc(O)c2N=C1C(Br)Br [the 6-dibromomethyl analogue, 2-Amino-4-hydroxy-6-dibromomethyl-7,7-dimethyl-7,8-dihydropteridine hydrobromide]
IC50 [1]: 25 µM
